The text below walks through data of patent US9549909B2, “Method for the treatment of dravet syndrome” (KATHOLIEKE UNIVERSITEIT LEUVEN, priority 2013, dated 2017).

Structures are written as SMILES.

Series [1] has as its system seizures in Dravet Syndrome patients. As to conditions: Combined STICLO-France and Italy; stiripentol and either valproate or clobazam; two months; cited from earlier work.
The test system of series [2] is self-induced photosensitive seizures. As to conditions: cited from earlier work.
The subject of series [3] is seizures in Dravet Syndrome patients. In words: Long-term fenfluramine and valproate treatment of Dravet Syndrome patients (Ceulemans et al. data). In kind it is in vivo, human. From the text:
The following table provides results based on the data presented in Ceulemans et al., Epilepsia (2012) 53(7):1131-1139.

The next series deals with refractory epilepsy. As to conditions: children with refractory epilepsy; dose of 0.5 to 1 mg/kg/day; cited from earlier work.
The subject of another series is heart valve. Briefly: Echocardiography monitoring for heart valve defects in subjects treated with fenfluramine. In kind it is in vivo, human. From the text:
The subjects treated with fenfluramine were monitored using echocardiography for possible heart valve defects.

Where [4] appears, read: fenfluramine and valproate, average daily dose 0.34 mg/kg/day for between 1 and 22 years, 0.34 mg/kg/day.

Turning to `CC(C)(C)C(O)/C=C/c1ccc2c(c1)OCO2` (stereo not drawn) [Stiripentol], in series [1], the “Responders - >50% Reduction in the Number of Seizures” value is recorded as 69.7% and the “Seizure Free Patients” value was 38.7%.
Take `CCNC(C)Cc1cccc(C(F)(F)F)c1` (stereo not drawn) [Fenfluramine, 3-trifluoromethyl-N-ethylamphetamine]: in series [2] (four cases, Aicardi and Gastaut), the “Response of self-induced photosensitive seizures” value is reported as “responded to treatment”. Further, the “Effect on pattern sensitivity-induced seizures resistant to anticonvulsive treatment” value in series [2] (one child, Clemens 1988) is on record as “successfully terminated these self-induced seizures”. Moreover, the “Types of seizures reduced” value in series [3] (Dravet Syndrome patients, not only photosensitive or self-induced seizures) is on record as “effectively reduced the incidence of all types of seizures”. Besides, in series [3] (setting [4]), the “>50% Reduction in Seizures (responders)” value is 75% and the “Seizure-free Patients” value was 66.6%. Further, the “Effect on number of seizures” value in the series with refractory epilepsy is given as “reduction in the number of seizures”. Moreover, the “Heart valve defects by echocardiography” value with heart valve is “No clinically relevant defects were identified”.
